Reference: patent US4806554A, “Pyrazol and indazolpyridinamines” (Hoechst-Roussel Pharmaceuticals, Inc., priority 1988, dated 1989)
Like-named read-outs stand apart in the source and are kept apart here.

Key:
[1] = tested on: tetrabenazine-induced ptosis in mice; assay: Prevention of tetrabenazine-induced ptosis in mice (antidepressant activity); assay type: in vivo; conditions: Mus musculus, po, read-out: ED50 (antidepressant activity)
Text: The test method and results are described below.
PREVENTION OF TETRABENAZINE-INDUCED PTOSIS IN MICE
Tetrabenazine (TBZ) induces behavioral depression with concomitant ptosis in mice similar to reserpine. Antidepressant compounds, both monoamineoxidase inhibitors and tricyclics, are known to prevent or antagonize these effects and the degree of antagonism correlates with clinical efficacy. The prevention of TBZ-induced ptosis in mice is used as a preliminary screen for possible antidepressant activity. The method used in this invention is as follows:
Male mice weighing 20 to 30 grams are used in test groups of five subjects. All compounds are dissolved or suspended with a suitable surfactant in distilled water and administered in volumes of 10 ml/kg of body weight. TBZ solution is made from the methanesulfonate salt and the concentration is adjusted to enable administration of 60 mg/kg of base by intraperitoneal (i.p.) injection.
The pretreatment time is measured from the time of dosing to observation. Therefore, when a 30-minute pretreat is utilized, drug and TBZ are given simultaneously. A control group received solvent and TBZ at intervals identical to drug group. For a primary screen, the drug is administered i.p. and a group size of five is utilized. Eight animals/group are used for a dose range.
The total score for each group of five in a primary screen will, therefore, be from 0 to 20 and these scores are used as indications of drug activity.
The vehicle control group score is used as a determinant of the validity of each test. […] The calculation of percent inhibition of ptosis is: [formula]

[2] = tested on: 2-phenyl-1,4-benzoquinone-induced writhing in mice; assay: 2-phenyl-1,4-benzoquinone-induced writhing (PQW) test in mice (analgesia); assay type: in vivo; conditions: s.c.
Text: Compounds I of the present invention are also useful as analgesic agents due to their ability to alleviate pain in mammals. […] Exptl. Biol. Med., 95, 729(1957)] and in modified Haffner's analgesia.

[3] = tested on: sensitivity of mice to pressure stress (artery clip on tail); assay: Modified Haffner's analgesia (artery clip on tail); assay type: in vivo, mice (Charles River; conditions: Mus musculus, sc; at peak time of drug activity; male CD-1 mice
Text: The latter assay is used to evaluate analgesic activity by measuring drug-induced changes in the sensitivity of mice to pressure stress by placing an artery clip (21/2 inches long) on their tail. The procedure used is a modification of the test developed by Haffner, Dtsch. Med. Wschr. 55, 731 (1929), and it is described below:
Male mice (Charles River, CD-1) from 18-30 grams are used for the test. An artery clip is applied to the root of the tail of a mouse (approximately 1/2 inch from the body) to induce pain. The animals quickly responds to this noxious stimuli by biting the clip or the location of the clip. This reaction time, the interval between stimulus onset and response, is recorded on 1/10 second increments by a stop watch.
For a time response, the screening dose (25 mg/kg) is administered subcutaneously (10 ml/kg) to the animal receiving food and water ad libitum before testing. […]
The cut-off time (CO) is determined by taking the (x) average +3 standard (SD) deviation of the combined response latencies of the control mice in all time periods.
Any reaction time, in subsequent drug tests, which is greater than the CO (for the same time period) therefore exceeds 99% of normal Gaussian distribution and is called "positive response" indicative of analgesic activity. […] The ED50 is determined at the peak time of drug activity. […] ED50 's are calculated using computer analysis.

| SMILES | ED50 ([1]; TBZ 60 mg/kg i.p., male mice) | ED50 [3] | also measured |
| --- | --- | --- | --- |
| CNCCCN1c2ccccc2CCc2ccccc21 [Desipramine, reference compound] | – | – | ED50 [1]: 2.3 mg/kg |
| O=C(O)/C=C\C(=O)O.c1ccc2c(c1)cnn2Nc1ccncc1 [N-(4-Pyridinyl)-1H-indazol-1-amine maleate] | 2.7 mg/kg | 10.4 mg/kg | PQW (% Inhibition of writhing) ([2]; at 0.7 mg/kg): 50% |
| CCCN(c1ccncc1)n1ncc2ccccc21.O=C(O)/C=C\C(=O)O [N-(Propyl)-N-(4-pyridinyl)-1H-indazol-1-amine maleate] | 8.5 mg/kg | – | PQW (% Inhibition of writhing) ([2]; at 20 mg/kg): 62% |
| CC(C)=CCN1CCC2(C)c3cc(O)ccc3CC1C2C (centres unmarked) [Pentazocin, reference compound] | – | 3.9 mg/kg | PQW (% Inhibition of writhing) ([2]; at 1.3 mg/kg): 50% |
